The values that follow come from PubChem BioAssay (NCI).

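How tested: cells in 96-well plates exposed to compound for 48 hours at five concentrations. At the TGI there is no net growth.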 Bounds are passed on as bounds.

Holding throughout (assay): NCI tumour cell line growth inhibition, 48 h
Experiment [1] has as its system CAKI-1 renal.
Experiment [2] deals with CCRF-CEM leukemia.
The test system of experiment [3] is HOP-62 NSCLC.
Experiment [4] relates to IGROV1 ovarian.
For experiment [5], the system named is LOX IMVI melanoma.
Experiment [6] deals with OVCAR-8 ovarian.
Experiment [7] has as its system RPMI-8226 leukemia.
For experiment [8], the system named is SF-295 CNS.
The subject of experiment [9] is SK-MEL-5 melanoma.
In experiment [10] the test system is SNB-75 CNS.

In the case of `COc1ccc(CSc2ccccc2Cn2cccc2)cc1OC`, the TGI in experiment [1], in experiment [2], in [3], in experiment [4], in experiment [5] and in experiment [6] was over 100 µM throughout. In addition, the TGI in experiment [7], in [8], in experiment [9] and in experiment [10] was over 100 µM in each case.
For the molecule `CCC(c1c[nH]c2ccc(Br)cc12)c1c[nH]c2ccc(Br)cc12`, the TGI is 6.58 µM in experiment [1]; 13.7 µM in [2]; 22.3 µM in experiment [3]; 19 µM in [4]; 6.66 µM in experiment [5]; 21.2 µM in [6]. The TGI in [7] stood at 11.3 µM; in [8], 18.8 µM; in experiment [9], 26.8 µM.
On to `C=CCOC(=O)C1C2OC3(C(C(=O)OC)=C2C(=O)OC)c2ccccc2CCC13` (configuration not stated), for which the TGI in [1], in experiment [2], in experiment [3], in [4], in experiment [5] and in experiment [6] was over 10 µM throughout. The TGI in experiment [7], in [8] and in [9] was over 10 µM in each case.
For `CN(C)CCCN1c2ccccc2CCc2ccc([N+](=O)[O-])cc21`, the TGI was over 100 µM in experiment [1]; over 100 µM in experiment [2]; 62.9 µM in [3]; 31 µM in experiment [4]; 31.5 µM in experiment [5]; over 100 µM in experiment [6]. The values for the TGI in experiment [7], in [8] and in experiment [9] were over 100 µM, 34.3 µM and 31.4 µM, respectively.
As to `COc1ccc(/C=C2\CN(C)C/C(=C\c3ccc(OC)c(OC)c3OC)C2=O)c(OC)c1OC`, the TGI in experiment [1] is 1.55 µM; in experiment [2], 0.0805 µM; in experiment [3], 0.84 µM; in [4], 1.07 µM; in experiment [5], 0.319 µM; in experiment [6] it was 0.343 µM. The TGI in [7] worked out at 0.211 µM; in experiment [8], 1.01 µM; in [9] it was 0.705 µM; in [10], 2.64 µM.
On to `Nc1nc(Cl)c(N)c(NCC2(CO)CC(CCCc3ccccc3)C2)n1` (configuration not stated), for which the TGI in experiment [1] was over 100 µM; in [2], 7.16 µM; in experiment [3], over 100 µM; in [4] it was over 73.9 µM; in experiment [5] it was 98.7 µM; in experiment [6] it was over 100 µM. The TGI in experiment [7] was over 50.1 µM; in [8] it was over 59.5 µM; in [9], 15.4 µM; in experiment [10] it was 67.7 µM.
In the case of `CCN(c1cccc(NC(=S)Nc2ccccc2N(CC)c2cc(-c3ccccc3)no2)c1)c1cc(-c2ccccc2)no1`, the TGI in experiment [1], in experiment [2], in [3], in experiment [4], in [5] and in [6] was over 100 µM throughout. The TGI in [7], in [8], in experiment [9] and in [10] was over 100 µM each time.
As for `CN(CCCNC(=O)c1nn(-c2ccc(Cl)cc2Cl)c2c1Cc1ccccc1-2)CCCNC(=O)c1nn(-c2ccc(Cl)cc2Cl)c2c1Cc1ccccc1-2`, the TGI in [1] is 2.95 µM; in experiment [2], 2.97 µM; in experiment [3], 3.09 µM; in [5] it was 3.26 µM; in [6], 3.46 µM; in [7], 3 µM. Moreover, the results for the TGI in experiment [8], in experiment [9] and in experiment [10] were 3.15 µM, 3.05 µM and 2.92 µM, respectively.
Consider `COc1nc(N)c(N=CC(OC(C)=O)C(OC(C)=O)C(COC(C)=O)OC(C)=O)c(=O)n1C` (configuration not stated), for which the TGI in experiment [1], in experiment [2], in [3], in [4], in experiment [5] and in experiment [6] was over 100 µM each time. Moreover, the TGI in experiment [7], in experiment [8], in experiment [9] and in experiment [10] was over 100 µM throughout.
With `Cc1ccc(/C(O)=C/C(=O)C(=O)NN=C(c2ccccc2)c2ccccc2)cc1`, the TGI in experiment [1], in experiment [2], in [4], in experiment [5], in [6] and in [7] was over 100 µM each time. In addition, the TGI in experiment [8], in experiment [9] and in experiment [10] was over 100 µM in each case.
For `CSCCC(NC(=O)Cc1ccc(C(=O)c2ccccc2)cc1)C(=O)O` (configuration not stated), the TGI in [1], in experiment [2], in experiment [3], in experiment [4], in [5] and in experiment [6] was over 100 µM throughout. Further, the TGI in experiment [8], in experiment [9] and in experiment [10] was over 100 µM throughout.
`O=C(Cc1ccccc1)NN1C(=O)C(Cl)C1c1ccccc1O` (configuration not stated): the TGI in experiment [1], in experiment [2], in experiment [3], in [4], in experiment [5] and in experiment [6] was over 100 µM throughout. In addition, the TGI in experiment [7], in experiment [8] and in [10] was over 100 µM each time.
With `CCN(CC)Cc1sc2nc3ccccc3n2c1-c1ccc(OC)cc1`, the TGI in experiment [1] is over 100 µM; in experiment [2], 67.6 µM; in experiment [3], over 100 µM; in experiment [4], over 100 µM; in experiment [5], over 100 µM; in [6] it was over 100 µM. Further, the figures for the TGI in experiment [7], in experiment [8] and in experiment [10] were 33.1 µM, over 100 µM and over 100 µM, respectively.
In the case of `COc1cc(/C=C(/C#N)C(N)=O)ccc1O`, the TGI in experiment [1], in [2], in [3], in experiment [4], in experiment [5] and in [6] was over 100 µM in each case. Besides, the TGI in experiment [7] was over 100 µM; in experiment [8] it was over 100 µM; in experiment [9] it was over 100 µM; in experiment [10], over 85.6 µM.
On to `COc1cc2c(cc1OC)C1(c3ccc(Cl)cc3)ON=C(c3ccccc3)N1CS2` (configuration not stated), for which the TGI in experiment [1], in [2], in [3], in [4], in experiment [5] and in experiment [7] was over 100 µM each time. The TGI in experiment [8], in [9] and in experiment [10] was over 100 µM throughout.
Regarding `O=C(CC(=O)Nc1ccccc1)N/N=C/c1cc(N=Nc2ccc(Br)cc2)ccc1O`, the TGI in experiment [1] was over 10 µM; in experiment [2] it was 5.3 µM; in [3], over 10 µM; in experiment [4], over 10 µM; in experiment [5] it was over 10 µM; in [6], over 10 µM. The TGI in [7], in experiment [9] and in experiment [10] was over 10 µM throughout.
With `CCOP(=O)(OCC)C(C)(CC)NC` (configuration not stated), the TGI in experiment [1] was over 100 µM; in experiment [2], 77.1 µM; in experiment [3] it was over 100 µM; in [4] it was over 100 µM; in experiment [5], over 100 µM; in experiment [6], over 100 µM. Further, the TGI in experiment [8], in experiment [9] and in [10] was over 100 µM throughout.
Regarding `FC(F)(F)c1ccc2nc(Sc3ccccn3)cnc2c1`, the TGI in experiment [1], in [2], in [3], in experiment [4], in experiment [5] and in [6] was over 100 µM throughout. Besides, the TGI in experiment [8] is over 100 µM; in experiment [9], 66.2 µM; in experiment [10] it was 96.1 µM.
For `COC(=O)C1=C(OC(=O)c2ccccc2)C(C(=O)OC)[C@]2(O)[C@@H](C(=O)OC)[C@H]1C[C@@H](c1ccccc1)[C@@H]2C(=O)OC` (some centres not stated), the TGI was over 100 µM in experiment [1]; 10.6 µM in [2]; 52 µM in [3]; 21.1 µM in experiment [4]; 26.7 µM in experiment [5]; 20.3 µM in experiment [6]. In addition, the values for the TGI in experiment [7], in [8] and in [9] were 13.8 µM, 36.7 µM and 17.4 µM, respectively.
For the molecule `Nc1ccc(CCN2CCN(CCCc3ccccc3)CC2)cc1`, the TGI in experiment [1], in experiment [2], in experiment [3], in experiment [4], in [5] and in [6] was over 100 µM in each case. In addition, the TGI in experiment [7], in [8] and in [9] was over 100 µM each time.
On to `COc1ccc2c(c1)CCN1CCc3cc(OC)c(OC)cc3CC21` (configuration not stated), for which the TGI was over 100 µM in experiment [1]; over 100 µM in experiment [2]; over 10 µM in experiment [4]; over 100 µM in experiment [5]; over 100 µM in experiment [6]; over 100 µM in [7]. The TGI in experiment [8] and in experiment [10] was over 100 µM in each case.
Regarding `COC(=O)c1c(O)ccc2c1C1(Cc3ccccc3C1=O)C(O)O2` (configuration not stated), the TGI in experiment [1] is 61.8 µM; in [2], 11.7 µM; in [3], 28.7 µM; in [4], 36.3 µM; in [5], over 100 µM; in experiment [6], 36.7 µM. In addition, the results for the TGI in experiment [7], in experiment [8] and in experiment [9] were 17.3 µM, over 100 µM and over 100 µM, respectively.
For `COC(=O)c1c(OC(C)=O)ccc2c1c1c(OC(C)=O)c3ccccc3c(OC(C)=O)c1n2Cc1ccccc1`, the TGI in experiment [1] was 27.9 µM; in experiment [2] it was 45 µM; in experiment [3] it was 25.4 µM; in [4], 19.7 µM; in [6], over 50 µM; in experiment [7], 5.4 µM. The TGI in experiment [8] turned out to be 10.9 µM; in experiment [9], 9.47 µM; in experiment [10], 6.61 µM.
Turning to `COc1ccc2oc(=N)c(C(=O)Nc3ccccn3)cc2c1`, the TGI in experiment [1], in [2], in [3], in experiment [4], in [5] and in [6] was over 100 µM throughout. In addition, the TGI in experiment [7], in experiment [9] and in experiment [10] was over 100 µM in each case.
As for `O=C(CSC1=NCCN1)Nc1ccccc1`, the TGI in experiment [1] was over 100 µM; in experiment [2] it was over 100 µM; in experiment [3], over 100 µM; in [4] it was over 100 µM; in [5], 39.2 µM; in experiment [6], over 100 µM. For the same molecule, the TGI is over 100 µM in experiment [7], over 100 µM in experiment [8] and 43.5 µM in experiment [10].
Take `CC1OC(OC2C(OC(=O)[C@@H]3CC(C)(C)C[C@H]4C5=CC[C@@H]6[C@@]7(C)C[C@H](O)[C@H](OC8OC(CO)C(O)C(O)C8O)[C@@](C)(CO)[C@@H]7[C@H](O)C[C@@]6(C)[C@]5(C)CC[C@@]34C)OCC(O)C2O)C(O)C(O)C1O` (some centres not stated): the TGI in experiment [1], in [2], in experiment [3], in [4], in experiment [5] and in [6] was over 7.5 µM throughout. Besides, the TGI in experiment [8], in [9] and in [10] was over 7.5 µM throughout.
With `COc1cccc(NC(=O)C(C#N)=C(SC)SC)c1`, the TGI in [1], in experiment [2], in experiment [3], in experiment [4], in experiment [5] and in experiment [6] was over 100 µM each time. Besides, the TGI in experiment [8], in experiment [9] and in [10] was over 100 µM throughout.
Take `Cc1n[nH]c(=O)n1/N=C/c1ccc([N+](=O)[O-])o1`: the TGI in experiment [1] is 19.9 µM; in experiment [2], over 100 µM; in experiment [3] it was over 64.4 µM; in experiment [5], 27.1 µM; in experiment [6], 34.6 µM; in experiment [7], over 58.3 µM. Also, the TGI in [8] was over 100 µM; in [9], 12.1 µM; in experiment [10], over 100 µM.
